Laboratory results taken from US20250041380A1, “R[…] FOR SARS-COV2 DISEASE” (priority 2021, published 2025).
Where two headings read alike, the source gives them in different places.

Assays:
in vitro [1] = type: cell-based, Human; conditions: human, 1 μM
Method: (§1) A549 cells were plated in DMEM+10% FBS at a density of 10,000 cells/well in 96-well culture plates and incubated at 37° C. for 24 h. THP-1 cells were plated in RPMI+10% FBS at a density of 10,000 cells/well in 96-well culture plates and incubated at 37° C. for 24 h. Cells were sera-starved for 24 h. […] Untreated cells were used as control. Cells treated with dexamethasone and hydroxychloroquine were included as positive control. After treatment, cells were incubated in a 5% CO2 incubator for 48 h.

Immune (THP-1) cells = assay: in vitro; type: cell-based, Human; conditions: 48 h
Method: as §1

in vitro [2] = type: cell-based, Human; conditions: human, 1 μM; remark: listed apart in the source
Method: as §1

Lung (A549) cells = assay: in vitro; type: cell-based, Human; conditions: 48 h
Method: as §1

Bladder cells (T24) = assay: tissue or blood; type: cell-based; conditions: Spike S1 Protein (5 μg/ml)
Cardiac cells (H9C2) = assay: cells; type: cell-based; conditions: Spike S1 Protein (5 μg/ml); for inhibition at 0.1 µM / inhibition at 1 µM / inhibition at 10 µM / inhibition at 20 µM: Rattus norvegicus, H9c2
Colon cells (HT-29) = assay: cells; type: cell-based; conditions: Spike S1 Protein (1 μg/ml); for inhibition at 0.1 µM / inhibition at 1 µM / inhibition at 10 µM / inhibition at 20 µM: Homo sapiens, HT-29
[3] = test system: Endothelial cells (EA.hy926); assay: cells; type: cell-based; conditions: Spike S1 Protein (1 μg/ml); for inhibition at 0.1 µM / inhibition at 1 µM / inhibition at 10 µM / inhibition at 20 µM: Homo sapiens, EA.hy 926
Kidney cells (HEK-293) = assay: cells; type: cell-based; conditions: Spike S1 Protein (100 ng/ml); for inhibition at 0.1 µM / inhibition at 1 µM / inhibition at 10 µM / inhibition at 20 µM: Homo sapiens, HEK293
Bone cells (MG-63) = assay: cells; type: cell-based; conditions: Spike S1 Protein (10 μg/ml); for inhibition at 0.1 µM / inhibition at 1 µM / inhibition at 10 µM / inhibition at 20 µM: Homo sapiens, MG-63
liver cells (HepG2) = assay: cells; type: cell-based; conditions: Spike S1 Protein (20 μg/ml)
[4] = test system: pancreatic cells (PANC-1); assay: cells; type: cell-based; conditions: Spike S1 Protein (20 μg/ml)+
[5] = 0.1 μM, read-out: % Inhibition (IL-6)
[6] = 0.1 μM, read-out: % Inhibition (IL-8)
[7] = 1 μM, read-out: % Inhibition (IL-6)
[8] = 1 μM, read-out: % Inhibition (IL-8)
[9] = 10 μM, read-out: % Inhibition (IL-6)
[10] = 10 μM, read-out: % Inhibition (IL-8)
[11] = 20 μM, read-out: % Inhibition (IL-6)
[12] = 20 μM, read-out: % Inhibition (IL-8)
[13] = 0.1 μM, read-out: % Inhibition (wrt Control), IL-6
[14] = 0.1 μM, read-out: % Inhibition (wrt Control), IL-8
[15] = 1 μM, read-out: % Inhibition (wrt Control), IL-6
[16] = 1 μM, read-out: % Inhibition (wrt Control), IL-8
[17] = 10 μM, read-out: % Inhibition (wrt Control), IL-6
[18] = 10 μM, read-out: % Inhibition (wrt Control), IL-8
[19] = 20 μM, read-out: % Inhibition (wrt Control), IL-6
[20] = 20 μM, read-out: % Inhibition (wrt Control), IL-8

**Q.** Which results are given for CCN(CCO)CCCC(C)Nc1ccnc2cc(Cl)ccc12 (stereo not shown) [Hydroxychloroquine sulphate]?
**A.** cytotoxicity at 48 h, 1 µM (in vitro [1]): -5.2%; % Viability (Immune (THP-1) cells; 0.1 μM): 113.4%; % Viability (Immune (THP-1) cells; 1 μM): 105.2%; % Viability (Immune (THP-1) cells; 5 μM): 95.8%; % Viability (Immune (THP-1) cells; 10 μM): 104.8%; % Viability (Immune (THP-1) cells; 20 μM): 89.3%; cytotoxicity at 48 h, 1 µM (in vitro [2]): -5.2%; % Viability (Lung (A549) cells; 0.1 μM): 79.0%; % Viability (Lung (A549) cells; 1 μM): 105.2%; % Viability (Lung (A549) cells; 5 μM): 101.0%; % Viability (Lung (A549) cells; 10 μM): 110.9%; % Viability (Lung (A549) cells; 20 μM): 72.4%; Con. of IL-8 (Bladder cells (T24); 0.1 μM): 2661.3; Conc. of IL-6 (Bladder cells (T24); 0.1 μM): 432.0; inhibition at 0.1 µM (Bladder cells (T24); [5]): 25.2%; inhibition at 0.1 µM (Bladder cells (T24); [6]): 37.7%; Con. of IL-8 (Bladder cells (T24); 1 μM): 2527.7; Conc. of IL-6 (Bladder cells (T24); 1 μM): 410.8; inhibition at 1 µM (Bladder cells (T24); [7]): 28.9%; inhibition at 1 µM (Bladder cells (T24); [8]): 40.9%; Con. of IL-8 (Bladder cells (T24); 10 μM): 2679.5; Conc. of IL-6 (Bladder cells (T24); 10 μM): 430.2; inhibition at 10 µM (Bladder cells (T24); [9]): 25.5%; inhibition at 10 µM (Bladder cells (T24); [10]): 37.3%; Con. of IL-8 (Bladder cells (T24); 20 μM): 2470.0; Conc. of IL-6 (Bladder cells (T24); 20 μM): 415.8; inhibition at 20 µM (Bladder cells (T24); [11]): 28%; inhibition at 20 µM (Bladder cells (T24); [12]): 42.2%; Con. of IL-8 (Cardiac cells (H9C2); 0.1 μM): 952.1; Conc. of IL-6 (Cardiac cells (H9C2); 0.1 μM): 420.1; Con. of IL-8 (Cardiac cells (H9C2); 1 μM): 768.5; Conc. of IL-6 (Cardiac cells (H9C2); 1 μM): 313.4; Con. of IL-8 (Cardiac cells (H9C2); 10 μM): 231.8; Conc. of IL-6 (Cardiac cells (H9C2); 10 μM): 125.2; Con. of IL-8 (Cardiac cells (H9C2); 20 μM): 45.5; Conc. of IL-6 (Cardiac cells (H9C2); 20 μM): 61.8; inhibition at 0.1 µM (Cardiac cells (H9C2); [5]): 16.9%; inhibition at 0.1 µM (Cardiac cells (H9C2); [6]): 33.5%; inhibition at 1 µM (Cardiac cells (H9C2); [7]): 38%; inhibition at 1 µM (Cardiac cells (H9C2); [8]): 46.3%; inhibition at 10 µM (Cardiac cells (H9C2); [9]): 75.2%; inhibition at 10 µM (Cardiac cells (H9C2); [10]): 83.8%; inhibition at 20 µM (Cardiac cells (H9C2); [11]): 87.8%; inhibition at 20 µM (Cardiac cells (H9C2); [12]): 96.8%; Con. of IL-8 (Colon cells (HT-29); 0.1 μM): 49.1 pg/mL; Conc. of IL-6 (Colon cells (HT-29); 0.1 μM): 114.8 pg/mL; Con. of IL-8 (Colon cells (HT-29); 1 μM): 92.3 pg/mL; Conc. of IL-6 (Colon cells (HT-29); 1 μM): 91.1 pg/mL; Con. of IL-8 (Colon cells (HT-29); 10 μM): 99.5 pg/mL; Conc. of IL-6 (Colon cells (HT-29); 10 μM): 125.2 pg/mL; Con. of IL-8 (Colon cells (HT-29); 20 μM): 37.6 pg/mL; Conc. of IL-6 (Colon cells (HT-29); 20 μM): 104.2 pg/mL; inhibition at 0.1 µM (Colon cells (HT-29); [13]): 51.3%; inhibition at 0.1 µM (Colon cells (HT-29); [14]): 92.7%; inhibition at 1 µM (Colon cells (HT-29); [15]): 61.4%; inhibition at 1 µM (Colon cells (HT-29); [16]): 86.2%; inhibition at 10 µM (Colon cells (HT-29); [17]): 46.9%; inhibition at 10 µM (Colon cells (HT-29); [18]): 85.2%; inhibition at 20 µM (Colon cells (HT-29); [19]): 55.8%; inhibition at 20 µM (Colon cells (HT-29); [20]): 94.4%; Con. of IL-8 ([3]; 0.1 μM): 826.7 pg/mL; Conc. of IL-6 ([3]; 0.1 μM): 145.1 pg/mL; Con. of IL-8 ([3]; 1 μM): 1026.6 pg/mL; Conc. of IL-6 ([3]; 1 μM): 200.3 pg/mL; Con. of IL-8 ([3]; 10 μM): 1756.7 pg/mL; Conc. of IL-6 ([3]; 10 μM): 64.0 pg/mL; Con. of IL-8 ([3]; 20 μM): 1573.3 pg/mL; Conc. of IL-6 ([3]; 20 μM): 58.9 pg/mL; inhibition at 0.1 µM ([3]; 0.1 μM, read-out: % Inhibition (wrt, IL-6)): 56.9%; inhibition at 0.1 µM ([3]; 0.1 μM, read-out: % Inhibition (wrt, IL-8)): 48.8%; inhibition at 1 µM ([3]; 1 μM, read-out: % Inhibition (wrt, IL-6)): 40.5%; inhibition at 1 µM ([3]; 1 μM, read-out: % Inhibition (wrt, IL-8)): 36.5%; inhibition at 10 µM ([3]; 10 μM, read-out: % Inhibition (wrt, IL-6)): 81%; inhibition at 10 µM ([3]; 10 μM, read-out: % Inhibition (wrt, IL-8)): 0%; inhibition at 20 µM ([3]; 20 μM, read-out: % Inhibition (wrt, IL-6)): 82.5%; inhibition at 20 µM ([3]; 20 μM, read-out: % Inhibition (wrt, IL-8)): 2.6%; Con. of IL-8 (Kidney cells (HEK-293); 0.1 μM): 651.8 pg/mL; Conc. of IL-6 (Kidney cells (HEK-293); 0.1 μM): 94.2 pg/mL; Con. of IL-8 (Kidney cells (HEK-293); 1 μM): 678.2 pg/mL; Conc. of IL-6 (Kidney cells (HEK-293); 1 μM): 97.4 pg/mL; Con. of IL-8 (Kidney cells (HEK-293); 10 μM): 959.1 pg/mL; Conc. of IL-6 (Kidney cells (HEK-293); 10 μM): 137.7 pg/mL; Con. of IL-8 (Kidney cells (HEK-293); 20 μM): 1809.1 pg/mL; Conc. of IL-6 (Kidney cells (HEK-293); 20 μM): 260.0 pg/mL; inhibition at 0.1 µM (Kidney cells (HEK-293); [13]): 63.8%; inhibition at 0.1 µM (Kidney cells (HEK-293); [14]): 66%; inhibition at 1 µM (Kidney cells (HEK-293); [15]): 62.6%; inhibition at 1 µM (Kidney cells (HEK-293); [16]): 64.6%; inhibition at 10 µM (Kidney cells (HEK-293); [17]): 47.1%; inhibition at 10 µM (Kidney cells (HEK-293); [18]): 49.9%; inhibition at 20 µM (Kidney cells (HEK-293); [19]): 0%; inhibition at 20 µM (Kidney cells (HEK-293); [20]): 5.5%; Con. of IL-8 (Bone cells (MG-63); 0.1 μM): 703.3 pg/mL; Conc. of IL-6 (Bone cells (MG-63); 0.1 μM): 136.5 pg/mL; Con. of IL-8 (Bone cells (MG-63); 1 μM): 660.0 pg/mL; Conc. of IL-6 (Bone cells (MG-63); 1 μM): 171.8 pg/mL; Con. of IL-8 (Bone cells (MG-63); 10 μM): 774.4 pg/mL; Conc. of IL-6 (Bone cells (MG-63); 10 μM): 233.8 pg/mL; Con. of IL-8 (Bone cells (MG-63); 20 μM): 1388.3 pg/mL; Conc. of IL-6 (Bone cells (MG-63); 20 μM): 354.0 pg/mL; inhibition at 0.1 µM (Bone cells (MG-63); [13]): 14.7%; inhibition at 0.1 µM (Bone cells (MG-63); [14]): 0.6%; inhibition at 1 µM (Bone cells (MG-63); [15]): -7.4%; inhibition at 1 µM (Bone cells (MG-63); [16]): 6.8%; inhibition at 10 µM (Bone cells (MG-63); [17]): -46.1%; inhibition at 10 µM (Bone cells (MG-63); [18]): -9.4%; inhibition at 20 µM (Bone cells (MG-63); [19]): -121%; inhibition at 20 µM (Bone cells (MG-63); [20]): -96.2%; Conc. of IL-8 (liver cells (HepG2); 0.1 μM): 117.1 pg/mL; Conc. of IL-8 (liver cells (HepG2); 1 μM): 193.2 pg/mL; Conc. of IL-8 (liver cells (HepG2); 10 μM): 162.5 pg/mL; Conc. of IL-8 (liver cells (HepG2); 20 μM): 103.6 pg/mL; inhibition at 0.1 µM (liver cells (HepG2); Homo sapiens, HepG2, 0.1 μM, read-out: % Inhibition (wrt Control ), IL-8): 76.5%; inhibition at 1 µM (liver cells (HepG2); Homo sapiens, HepG2, 1 μM, read-out: % Inhibition (wrt Control ), IL-8): 61.3%; inhibition at 10 µM (liver cells (HepG2); Homo sapiens, HepG2, 10 μM, read-out: % Inhibition (wrt Control ), IL-8): 67.4%; inhibition at 20 µM (liver cells (HepG2); Homo sapiens, HepG2, 20 μM, read-out: % Inhibition (wrt Control ), IL-8): 79.2%; Conc. of IL-8 ([4]; 0.1 μM): 214 pg/mL; Conc. of IL-8 ([4]; 1 μM): 169.9 pg/mL; Conc. of IL-8 ([4]; 10 μM): 200.5 pg/mL; Conc. of IL-8 ([4]; 20 μM): 203 pg/mL; inhibition at 0.1 µM ([4]; Homo sapiens, PANC-1, 0.1 μM, read-out: % Inhibition (wrt Control ), IL-8): 71.3%; inhibition at 1 µM ([4]; Homo sapiens, PANC-1, 1 μM, read-out: % Inhibition (wrt Control ), IL-8): 77.2%; inhibition at 10 µM ([4]; Homo sapiens, PANC-1, 10 μM, read-out: % Inhibition (wrt Control ), IL-8): 73.1%; inhibition at 20 µM ([4]; Homo sapiens, PANC-1, 20 μM, read-out: % Inhibition (wrt Control ), IL-8): 72.8%
